From publication PMC10999543, “Identification of kinase modulators as host-directed therapeutics against intracellular methicillin-resistant Staphylococcus aureus” (Frontiers in Cellular and Infection Microbiology, 2024)
Where two headings read alike, the source gives them in different places.

How the values were obtained:
intracellular MRSA = format: cell-based, Staphylococcus aureus; conditions: for %GFP+ rep 1 / z-scoreMRSA+ rep 1: replicate 1; for %GFP+ rep 2 / z-scoreMRSA+ rep 2: replicate 2; for %GFP+ rep 3 / z-scoreMRSA+ rep 3: replicate 3; for z-scoreMRSA+ mean: mean of 3 replicates; as to %GFP+ rep 1: test concentration or dose not given here; as to %GFP+ rep 2: test concentration or dose not given here; as to %GFP+ rep 3: test concentration or dose not given here; as to effect: test concentration or dose not given here; as to z-scoreMRSA+ mean: test concentration or dose not given here; as to z-scoreMRSA+ rep 1: test concentration or dose not given here; as to z-scoreMRSA+ rep 2: test concentration or dose not given here; as to z-scoreMRSA+ rep 3: test concentration or dose not given here
Outline: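 Values are z-scores: GFP-positive HeLa percentage and event count per well against plate statistics, minus the mean DMSO z-score. Wells deviating two-fold from controls were left out of plate means. Infection was at a mean MOI of 6.8, with an overnight compound exposure.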

HeLa cells = assay: Compound screen by flow cytometry: HeLa cell count as surrogate readout of cell viability (z-scoreHeLa); format: cell-based, human; also: test concentration or dose not given here
Outline: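 The viability surrogate was the count of fixed HeLa cells by flow cytometry, converted to z-scores against DMSO controls with values deviating two-fold excluded. Before counting, cells had been infected with MRSA for 1 h and cleared of extracellular bacteria with gentamicin. They were then exposed overnight to kinase inhibitors in triplicate.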

[1] = PKIS compound screen raw data, MRSA-infected HeLa cells
[2] = PKIS compound screen, MRSA-infected HeLa cells
[3] = PKIS compound screen, Yes/No call
[4] = PKIS compound screen, Yes/No call (effect without cell death)
[5] = PKIS compound screen, Yes/No call on z-scoreMRSA+
[6] = PKIS compounds raw data, MRSA-infected HeLa cells
[7] = PKIS compound screen raw data, HeLa cell count, replicate 1
[8] = PKIS compound screen raw data, HeLa cell count, replicate 2
[9] = PKIS compound screen raw data, HeLa cell count, replicate 3
[10] = PKIS compound screen, mean of 3 replicates
[11] = PKIS compound screen, replicate 1
[12] = PKIS compound screen, replicate 2
[13] = PKIS compound screen, replicate 3
[14] = PKIS compounds raw data, replicate 1, HeLa cell count
[15] = PKIS compounds raw data, replicate 2, HeLa cell count
[16] = PKIS compounds raw data, replicate 3, HeLa cell count
[17] = Yes/No: effect without cell death
[18] = compound screen, MRSA-infected HeLa cells
[19] = compound screen, HeLa cell count, mean of 3 replicates
[20] = compound screen, HeLa cell count, replicate 1
[21] = compound screen, HeLa cell count, replicate 2
[22] = compound screen, HeLa cell count, replicate 3

Compound: Cc1ccc(NC(=O)c2ccnc(N3CCN(C)CC3)c2)cc1-c1ccc(C(=O)NCC2CC2)cc1 [GW775604X]
- %GFP+ rep 1 (intracellular MRSA; [1]): 22.9%
- %GFP+ rep 2 (intracellular MRSA; [1]): 25.3%
- %GFP+ rep 3 (intracellular MRSA; [1]): 27.3%
- z-scoreMRSA+ mean (intracellular MRSA; [2]): 1.46
- z-scoreMRSA+ rep 1 (intracellular MRSA; [2]): 1.10
- z-scoreMRSA+ rep 2 (intracellular MRSA; [2]): 1.61
- z-scoreMRSA+ rep 3 (intracellular MRSA; [2]): 1.66
- effect (intracellular MRSA; [3]): No
- hit (intracellular MRSA; [4]): No
- effect (intracellular MRSA; [5]): No
- z-scoreMRSA+ mean (intracellular MRSA; PKIS compound screen): -0.35
- z-scoreMRSA+ rep 1 (intracellular MRSA; PKIS compound screen): -0.34
- z-scoreMRSA+ rep 2 (intracellular MRSA; PKIS compound screen): -0.43
- z-scoreMRSA+ rep 3 (intracellular MRSA; PKIS compound screen): -0.27
- %GFP+ rep 1 (intracellular MRSA; [6]): 25.3%
- %GFP+ rep 2 (intracellular MRSA; [6]): 23.8%
- %GFP+ rep 3 (intracellular MRSA; [6]): 25.8%
- cell count rep 1 (HeLa cells; [7]): 20638
- cell count rep 2 (HeLa cells; [8]): 17919
- cell count rep 3 (HeLa cells; [9]): 18503
- z-scoreHeLa mean (HeLa cells; PKIS compound screen, HeLa cell count, mean of 3 replicates): -0.99
- z-scoreHeLa rep 1 (HeLa cells; PKIS compound screen, HeLa cell count, replicate 1): -1.62
- z-scoreHeLa rep 2 (HeLa cells; PKIS compound screen, HeLa cell count, replicate 2): -1.26
- z-scoreHeLa rep 3 (HeLa cells; PKIS compound screen, HeLa cell count, replicate 3): -0.08
- cell death (HeLa cells; [3]): No
- cell death (HeLa cells; PKIS compound screen, Yes/No call on z-scoreHeLa): No
- z-scoreHeLa mean (HeLa cells; [10]): 0.09
- z-scoreHeLa rep 1 (HeLa cells; [11]): -0.44
- z-scoreHeLa rep 2 (HeLa cells; [12]): 1.03
- z-scoreHeLa rep 3 (HeLa cells; [13]): -0.32
- cell count rep 1 (HeLa cells; [14]): 5307
- cell count rep 2 (HeLa cells; [15]): 7562
- cell count rep 3 (HeLa cells; [16]): 5095

Compound: NS(=O)(=O)c1ccc(N/C=C2\C(=O)Nc3ccc4ncsc4c32)cc1 [GW297361X]
- effect (intracellular MRSA; [3]): No
- hit (intracellular MRSA; [4]): No
- z-scoreMRSA+ mean (intracellular MRSA; PKIS compound screen): 0.46
- z-scoreMRSA+ rep 1 (intracellular MRSA; PKIS compound screen): 0.87
- z-scoreMRSA+ rep 2 (intracellular MRSA; PKIS compound screen): 1.17
- z-scoreMRSA+ rep 3 (intracellular MRSA; PKIS compound screen): -0.68
- %GFP+ rep 1 (intracellular MRSA; [6]): 15.9%
- %GFP+ rep 2 (intracellular MRSA; [6]): 17.0%
- %GFP+ rep 3 (intracellular MRSA; [6]): 13.6%
- cell death (HeLa cells; [3]): No
- z-scoreHeLa mean (HeLa cells; [10]): -1.04
- z-scoreHeLa rep 1 (HeLa cells; [11]): -1.65
- z-scoreHeLa rep 2 (HeLa cells; [12]): -0.59
- z-scoreHeLa rep 3 (HeLa cells; [13]): -0.88
- cell count rep 1 (HeLa cells; [14]): 2950
- cell count rep 2 (HeLa cells; [15]): 3493
- cell count rep 3 (HeLa cells; [16]): 5130

Compound: CC(C)c1nc(-c2cccc(NS(=O)(=O)c3c(F)cccc3F)c2)c(-c2ccnc(Nc3ccc(N4CCOCC4)nc3)n2)s1 [GSK1723980B]
- %GFP+ rep 1 (intracellular MRSA; [1]): 10.5%
- %GFP+ rep 2 (intracellular MRSA; [1]): 11.7%
- %GFP+ rep 3 (intracellular MRSA; [1]): 10.2%
- effect (intracellular MRSA; Yes/No call from z-scoreMRSA+): Yes
- hit (intracellular MRSA; [17]): Yes
- z-scoreMRSA+ mean (intracellular MRSA; [18]): -3.23
- z-scoreMRSA+ rep 1 (intracellular MRSA; [18]): -3.44
- z-scoreMRSA+ rep 2 (intracellular MRSA; [18]): -2.65
- z-scoreMRSA+ rep 3 (intracellular MRSA; [18]): -3.59
- cell count rep 1 (HeLa cells; [7]): 2167
- cell count rep 2 (HeLa cells; [8]): 1981
- cell count rep 3 (HeLa cells; [9]): 2206
- cell death (HeLa cells; Yes/No call from z-scoreHeLa): No
- z-scoreHeLa mean (HeLa cells; [19]): -1.76
- z-scoreHeLa rep 1 (HeLa cells; [20]): -1.58
- z-scoreHeLa rep 2 (HeLa cells; [21]): -1.79
- z-scoreHeLa rep 3 (HeLa cells; [22]): -1.92

Compound: COc1ccc(Nc2nccc(NCCNC(=O)Nc3ccccc3F)n2)cc1 [GSK1379901A]
- %GFP+ rep 1 (intracellular MRSA; [1]): 25.4%
- %GFP+ rep 2 (intracellular MRSA; [1]): 21.0%
- %GFP+ rep 3 (intracellular MRSA; [1]): 21.4%
- effect (intracellular MRSA; Yes/No call from z-scoreMRSA+): No
- hit (intracellular MRSA; [17]): No
- z-scoreMRSA+ mean (intracellular MRSA; [18]): -0.20
- z-scoreMRSA+ rep 1 (intracellular MRSA; [18]): 0.03
- z-scoreMRSA+ rep 2 (intracellular MRSA; [18]): -0.39
- z-scoreMRSA+ rep 3 (intracellular MRSA; [18]): -0.24
- cell count rep 1 (HeLa cells; [7]): 4960
- cell count rep 2 (HeLa cells; [8]): 3999
- cell count rep 3 (HeLa cells; [9]): 4730
- cell death (HeLa cells; Yes/No call from z-scoreHeLa): No
- z-scoreHeLa mean (HeLa cells; [19]): -0.04
- z-scoreHeLa rep 1 (HeLa cells; [20]): 0.44
- z-scoreHeLa rep 2 (HeLa cells; [21]): -0.23
- z-scoreHeLa rep 3 (HeLa cells; [22]): -0.32

Compound: Cc1cc(Cl)cc2c1NC(=O)C2=NNc1ccc(S(N)(=O)=O)cc1 [GW279320X]
- effect (intracellular MRSA; [3]): No
- hit (intracellular MRSA; [4]): No
- z-scoreMRSA+ mean (intracellular MRSA; PKIS compound screen): 4.85
- z-scoreMRSA+ rep 1 (intracellular MRSA; PKIS compound screen): 4.78
- z-scoreMRSA+ rep 2 (intracellular MRSA; PKIS compound screen): 5.69
- z-scoreMRSA+ rep 3 (intracellular MRSA; PKIS compound screen): 4.09
- %GFP+ rep 1 (intracellular MRSA; [6]): 28.1%
- %GFP+ rep 2 (intracellular MRSA; [6]): 30.5%
- %GFP+ rep 3 (intracellular MRSA; [6]): 29.7%
- cell death (HeLa cells; [3]): No
- z-scoreHeLa mean (HeLa cells; [10]): 1.27
- z-scoreHeLa rep 1 (HeLa cells; [11]): 0.91
- z-scoreHeLa rep 2 (HeLa cells; [12]): 1.43
- z-scoreHeLa rep 3 (HeLa cells; [13]): 1.47
- cell count rep 1 (HeLa cells; [14]): 5783
- cell count rep 2 (HeLa cells; [15]): 6163
- cell count rep 3 (HeLa cells; [16]): 10033

Compound: SB-739245-AC
- %GFP+ rep 1 (intracellular MRSA; [1]): 12.9%
- %GFP+ rep 2 (intracellular MRSA; [1]): 15.6%
- %GFP+ rep 3 (intracellular MRSA; [1]): 16.3%
- z-scoreMRSA+ mean (intracellular MRSA; [2]): -1.17
- z-scoreMRSA+ rep 1 (intracellular MRSA; [2]): -1.57
- z-scoreMRSA+ rep 2 (intracellular MRSA; [2]): -0.88
- z-scoreMRSA+ rep 3 (intracellular MRSA; [2]): -1.06
- hit (intracellular MRSA; [4]): No
- effect (intracellular MRSA; [5]): No
- cell count rep 1 (HeLa cells): 23497
- cell count rep 2 (HeLa cells): 32010
- cell count rep 3 (HeLa cells): 40050
- cell death (HeLa cells): No
- z-scoreHeLa mean (HeLa cells): -0.0274
- z-scoreHeLa rep 1 (HeLa cells): 0.51
- z-scoreHeLa rep 2 (HeLa cells): -0.52
- z-scoreHeLa rep 3 (HeLa cells): -0.0761

Compound: Fc1cccc(COc2ccc(Nc3ncnc4sc(-c5ccc[nH]5)cc34)cc2Cl)c1 [GW707818B]
- %GFP+ rep 1 (intracellular MRSA; [6]): 24.9%
- %GFP+ rep 2 (intracellular MRSA; [6]): 22.3%
- %GFP+ rep 3 (intracellular MRSA; [6]): 25.1%
- effect (intracellular MRSA; Yes/No call from z-scoreMRSA+): No
- hit (intracellular MRSA; [17]): No
- z-scoreMRSA+ mean (intracellular MRSA; [18]): 0.24
- z-scoreMRSA+ rep 1 (intracellular MRSA; [18]): -0.09
- z-scoreMRSA+ rep 2 (intracellular MRSA; [18]): -0.0758
- z-scoreMRSA+ rep 3 (intracellular MRSA; [18]): 0.87
- cell count rep 1 (HeLa cells; [14]): 5915
- cell count rep 2 (HeLa cells; [15]): 6344
- cell count rep 3 (HeLa cells; [16]): 7651
- cell death (HeLa cells; Yes/No call from z-scoreHeLa): No
- z-scoreHeLa mean (HeLa cells; [19]): 1.41
- z-scoreHeLa rep 1 (HeLa cells; [20]): 1.13
- z-scoreHeLa rep 2 (HeLa cells; [21]): 1.57
- z-scoreHeLa rep 3 (HeLa cells; [22]): 1.52
